Laboratory results published in US12213988B2 (ASTRAZENECA AB, priority 2020, dated 2025).
Read-outs that look alike come from different tables or passages of the source.

Experiments:
[1] = test system: patients with chronic kidney disease (CKD)
[2] = test system: patients with chronic kidney disease (CKD); remark: listed apart in the source
Procedure: The study population chosen for this study included a broad population of patients with impaired kidney function. The target population had CKD (defined as eGFR ≥25 and ≤75 mL/min/1.73 m^2) with albuminuria (defined as urine albumin creatinine ratio [UACR]≥200 and ≤5000 mg/g) with or without type 2 diabetes (T2D).
Patients included in the study satisfied the following criteria: • Female or male aged ≥18 years at the time of consent. • eGFR ≥25 and ≤75 mL/min/1.73 m^2 (CKD-EPI Formula) at visit 1. • Evidence of increased albuminuria 3 months or more before visit 1 and UACR ≥200 and ≤5000 mg/g at visit 1. • Stable, and for the patient maximum tolerated labelled daily dose, treatment with ACE-I or ARB for at least 4 weeks before visit 1, if not medically contraindicated.
The primary outcome measure was based on the requirements as outlined in the European Medicines Agency (EMA)'s draft guideline, which states that a composite endpoint of ≥50% sustained decline in eGFR, end stage renal disease (ESRD), and renal death (death due to ESRD when dialysis is not given) are acceptable outcome measures (EMA 2016). This endpoint has also been used in a number of previous outcome studies.
The primary variable was the time to first event included in the primary composite endpoint. The primary analysis was based on the intention to treat (ITT) principle using the FAS.

[3] = test system: patients with CKD and prediabetes
[4] = test system: patients with heart failure with reduced ejection fraction
[5] = Dapa 10 mg (N = 2149), on-treatment period per Table 2 footnote
[6] = No diabetes, Dapa 10 mg (N = 696), on- and off-treatment periods
[7] = patients with T2DM, Dapa 10 mg (N = 1453), on- and off-treatment periods
[8] = vs placebo or standard of care CKD agent alone, in words
[9] = vs placebo or standard of care CKD agent alone, in words, listed as Dapagliflozin
[10] = dapagliflozin 10 mg once daily, CKD and prediabetes, median follow-up of 2.4 years
[11] = dapa group, DAPA-HF non-T2D patients

Structure (SMILES): CCOc1ccc(Cc2cc([C@@H]3O[C@H](CO)[C@@H](O)[C@H](O)[C@H]3O)ccc2Cl)cc1 [dapagliflozin]
- SAE: Infections and infestations ([1]; Dapa 10 mg (N = 2149), on-treatment period): 171 (8.0) Number (%) of subjects
- Any AE with outcome = death [1, 5]: 106 (4.9) Number (%) of subjects
- Any SAE (including events with outcome = death) [1, 5]: 633 (29.5) Number (%) of subjects
- Any AE with outcome = death [1, 6]: 17 (2.4) Number (%) of subjects
- Any SAE (including events with outcome = death) [1, 6]: 150 (21.6) Number (%) of subjects
- Deaths, SAEs (serious adverse events) and DAEs (discontinuations due to adverse event) ([1]; dapagliflozin group compared with placebo group, in words): fewer
- AEs leading to dose reduction ([1]; human, in vivo): few but more common
- patients reported SAEs, overall ([1]; human, in vivo): fewer
- Any AE with outcome = death [1, 7]: 89 (6.1) Number (%) of subjects
- Any SAE (including events with outcome = death) [1, 7]: 483 (33.2) Number (%) of subjects
- hazard ratio, primary end point (≥50% sustained decline in eGFR, ESRD, and CV or renal death) ([2]; dapagliflozin vs placebo, 95% CI 0.51 to 0.72, P<0.0001): 0.61
- effect on death from any cause [2, 8]: superior
- effect on renal-only secondary endpoint (composite of ≥50% sustained decline in eGFR, ESRD & renal death; renal composite without CV death) [2, 8]: superior
- effect on secondary endpoint composite of CV death and hospitalisation for HF [2, 8]: superior
- effect on time to first, second, or third hospitalisation for HF (exploratory endpoints) [2, 8]: superior
- effect on death from any cause [2, 9]: superior to placebo
- effect on renal-only secondary endpoint (composite of ≥50% sustained decline in eGFR, ESRD & renal death; renal composite without CV death) [2, 9]: significant treatment effect
- effect on secondary endpoint composite of CV death and hospitalisation for HF [2, 9]: Statistically significant reduction
- effect on composite of ≥50% sustained eGFR decline, ESRD, and renal or CV death (primary objective) ([2]; vs placebo, in words): clinically meaningful and statistically significant reduction
- T2D developed in [3, 10]: 3.0%
- T2D developed in (patients/group) [3, 10]: 21/697
- event rate of newly diagnosed T2D ([3]; dapagliflozin 10 mg once daily, median follow-up of 2.4 years): 1.5 /100-patient years
- reduction in T2D incidence ([3]; dapagliflozin vs placebo): 38%
- new-onset diabetes [4, 11]: 4.9%
- new-onset diabetes (patients/group) [4, 11]: 64/1298
- HR, new-onset diabetes ([4]; dapa vs placebo, 95% CI, 0.50-0.94, p=0.019, Cox): 0.68
- reduction of new-onset diabetes ([4]; dapa vs placebo, DAPA-HF non-T2D patients): 32%
